pIC50: −log10 of the molar value.
What was measured:
Format in all cases: biochemical
JAK3 = molecular target: T1, JAK3 (Homo sapiens, UniProt P52333); assay: Functional assay of protein Janus kinases (Caliper mobility shift), JAK3; conditions: ATP 8 μM, incubation 30 min; read-out: JAK3 enzymatic activity (IC50) score
T1 construct: purchased Carna Biosciences 08-046
Description: (§1) The functional assays of protein Janus kinases were carried out in 384-well plates using a final volume of 30 μl. […] The reaction was reads in a “Caliper EzReader LabChip 3000” (Caliper, Hopkinton, Mass.) reader, based on electrophoretic mobility of the fluorescent substrate and the phosphorylated product.
(§2) The inhibition percentages were calculated by comparison between control reactions, for 100% of inhibition and reactions with only DMSO for 0% of inhibition.

JAK2 = molecular target: T2, JAK2 (Homo sapiens, UniProt O60674); assay: Functional assay of protein Janus kinases (Caliper mobility shift), JAK2; conditions: ATP 300 μM, incubation 30 min; read-out: JAK2 enzymatic activity (IC50) score
T2 construct: purchased Carna Biosciences 08-045
Description: as §1, §2

TYK2 = molecular target: T3, TYK2 (Homo sapiens, UniProt P29597); assay: Functional assay of protein Janus kinases (Caliper mobility shift), TYK2; conditions: ATP 20 μM, incubation 45 min; read-out: TYK2 enzymatic activity (IC50) score
T3 construct: purchased Carna Biosciences 08-147
T3 sequence (P29597 871-1187 limits assumed): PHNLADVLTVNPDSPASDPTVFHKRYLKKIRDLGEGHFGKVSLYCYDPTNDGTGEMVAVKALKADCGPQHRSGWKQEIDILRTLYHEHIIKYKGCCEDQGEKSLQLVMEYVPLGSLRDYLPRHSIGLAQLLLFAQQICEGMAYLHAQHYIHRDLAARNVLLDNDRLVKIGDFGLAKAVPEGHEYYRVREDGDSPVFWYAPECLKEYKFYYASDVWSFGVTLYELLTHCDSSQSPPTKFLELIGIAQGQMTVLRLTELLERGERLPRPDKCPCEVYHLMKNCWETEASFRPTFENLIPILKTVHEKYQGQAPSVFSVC
Description: as §1, §2

JAK1 = molecular target: T4, JAK1 (Homo sapiens, UniProt P23458); assay: Functional assay of protein Janus kinases (Caliper mobility shift), JAK1; conditions: ATP 100 μM, incubation 150 min; read-out: JAK1 enzymatic activity (IC50) score
T4 construct: purchased Carna Biosciences 08-144
Description: as §1, §2

T2 sequence (O60674 826-1132 limits assumed): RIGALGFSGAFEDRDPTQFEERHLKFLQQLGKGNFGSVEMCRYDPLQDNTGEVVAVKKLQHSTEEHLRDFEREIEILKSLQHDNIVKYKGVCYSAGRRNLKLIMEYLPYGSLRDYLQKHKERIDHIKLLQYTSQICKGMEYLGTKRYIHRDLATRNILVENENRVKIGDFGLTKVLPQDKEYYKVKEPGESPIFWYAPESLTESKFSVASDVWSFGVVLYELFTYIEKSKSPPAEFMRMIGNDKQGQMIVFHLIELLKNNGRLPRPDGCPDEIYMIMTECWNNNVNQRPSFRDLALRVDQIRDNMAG
T1 sequence (P52333 795-1124 limits assumed): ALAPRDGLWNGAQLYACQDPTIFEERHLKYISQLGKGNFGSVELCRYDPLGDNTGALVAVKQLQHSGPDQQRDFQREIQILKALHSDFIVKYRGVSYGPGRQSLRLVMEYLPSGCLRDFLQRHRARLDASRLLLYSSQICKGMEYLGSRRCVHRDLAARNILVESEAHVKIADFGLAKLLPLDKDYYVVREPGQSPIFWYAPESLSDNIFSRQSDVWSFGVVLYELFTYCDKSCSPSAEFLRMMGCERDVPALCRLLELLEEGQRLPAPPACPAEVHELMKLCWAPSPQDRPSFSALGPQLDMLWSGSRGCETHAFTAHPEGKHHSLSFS
T4 sequence (P23458 850-1154 limits assumed): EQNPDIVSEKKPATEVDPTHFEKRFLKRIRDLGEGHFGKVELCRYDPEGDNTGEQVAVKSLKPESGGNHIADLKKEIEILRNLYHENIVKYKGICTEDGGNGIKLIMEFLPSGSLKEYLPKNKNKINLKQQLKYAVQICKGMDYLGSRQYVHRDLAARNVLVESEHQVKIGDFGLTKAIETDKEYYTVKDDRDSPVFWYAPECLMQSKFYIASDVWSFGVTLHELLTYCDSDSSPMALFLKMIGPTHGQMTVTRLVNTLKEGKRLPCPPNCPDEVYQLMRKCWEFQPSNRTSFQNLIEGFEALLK

| pIC50 (JAK3) | pIC50 (JAK2) | pIC50 (TYK2) | pIC50 (JAK1) | SMILES |
| --- | --- | --- | --- | --- |
| 6.00 to 7.00 | < 6.00 | < 6.00 | < 6.00 | CN1CCC(NC(=O)c2cccn3c(=O)c4cc(C5CC5)ccc4nc23)CC1 [Example 3, 2-cyclopropyl-N-(1-methylpiperidin-4-yl)-11-oxo-11H-pyrido[2,1-b]quinazoline-6-carboxamide] |
| 6.00 to 7.00 | < 6.00 | > 7.00 | < 6.00 | O=C(NC1CCOCC1)c1cccn2c(=O)c3cc(C4CC4)ccc3nc12 [Example 4, 2-cyclopropyl-11-oxo-N-(tetrahydro-2H-pyran-4-yl)-11H-pyrido[2,1-b]quinazoline-6-carboxamide] |
| > 7.00 | < 6.00 | > 7.00 | < 6.00 | CC1COCCC1NC(=O)c1cccn2c(=O)c3cc(C4CC4)ccc3nc12 (centres unmarked) [Example 5, 2-cyclopropyl-N-(3-methyltetrahydro-2H-pyran-4-yl)-11-oxo-11H-pyrido[2,1-b]quinazoline-6-carboxamide] |
| > 7.00 | < 6.00 | > 7.00 | < 6.00 | C[C@]1(O)CC[C@H](NC(=O)c2cccn3c(=O)c4cc(C5CC5)ccc4nc23)CC1 [Example 6, 2-cyclopropyl-N-((1R,4R)-4-hydroxy-4-methylcyclohexyl)-11-oxo-11H-pyrido[2,1-b]quinazoline-6-carboxamide] |
| > 7.00 | < 6.00 | 6.00 to 7.00 | < 6.00 | O=C(N[C@H]1CC[C@H](O)CC1)c1cccn2c(=O)c3cc(C4CC4)ccc3nc12 [Example 7, 2-cyclopropyl-N-((1R,4R)-4-hydroxycyclohexyl)-11-oxo-11H-pyrido[2,1-b]quinazoline-6-carboxamide] |
| 6.00 to 7.00 | < 6.00 | > 7.00 | < 6.00 | O=C(NC1CCCCC1O)c1cccn2c(=O)c3cc(C4CC4)ccc3nc12 (centres unmarked) [Example 8, 2-cyclopropyl-N-(2-hydroxycyclohexyl)-11-oxo-11H-pyrido[2,1-b]quinazoline-6-carboxamide] |
| 6.00 to 7.00 | < 6.00 | < 6.00 | < 6.00 | O=C(N[C@@H]1CCCC[C@H]1O)c1cccn2c(=O)c3cc(C4CC4)ccc3nc12 [Example 9, 2-cyclopropyl-N-((1R,2R)-2-hydroxycyclohexyl)-11-oxo-11H-pyrido[2,1-b]quinazoline-6-carboxamide] |
| > 7.00 | < 6.00 | > 7.00 | < 6.00 | O=C(N[C@H]1CCCC[C@H]1O)c1cccn2c(=O)c3cc(C4CC4)ccc3nc12 [Example 10, 2-cyclopropyl-N-((1S,2R)-2-hydroxycyclohexyl)-11-oxo-11H-pyrido[2,1-b]quinazoline-6-carboxamide] |
| > 7.00 | < 6.00 | 6.00 to 7.00 | < 6.00 | O=C(N[C@@H]1CCCC[C@@H]1O)c1cccn2c(=O)c3cc(C4CC4)ccc3nc12 [Example 11, 2-cyclopropyl-N-((1R,2S)-2-hydroxycyclohexyl)-11-oxo-11H-pyrido[2,1-b]quinazoline-6-carboxamide] |
| 6.00 to 7.00 | < 6.00 | 6.00 to 7.00 | < 6.00 | O=C(N[C@H]1CCCC[C@@H]1O)c1cccn2c(=O)c3cc(C4CC4)ccc3nc12 [Example 12, 2-cyclopropyl-N-((1S,2S)-2-hydroxycyclohexyl)-11-oxo-11H-pyrido[2,1-b]quinazoline-6-carboxamide] |
| 6.00 to 7.00 | < 6.00 | > 7.00 | < 6.00 | O=C(NC1CCOC1)c1cccn2c(=O)c3cc(C4CC4)ccc3nc12 (centres unmarked) [Example 14, 2-cyclopropyl-11-oxo-N-(tetrahydrofuran-3-yl)-11H-pyrido[2,1-b]quinazoline-6-carboxamide] |
| > 7.00 | < 6.00 | 6.00 to 7.00 | < 6.00 | O=C(NC1CCC(F)(F)CC1)c1cccn2c(=O)c3cc(C4CC4)ccc3nc12 [Example 15, 2-cyclopropyl-N-(4,4-difluorocyclohexyl)-11-oxo-11H-pyrido[2,1-b]quinazoline-6-carboxamide] |
| 6.00 to 7.00 | < 6.00 | > 7.00 | < 6.00 | O=C(NC1CCCC1)c1cccn2c(=O)c3cc(O)ccc3nc12 [Example 18, N-cyclopentyl-2-hydroxy-11-oxo-11H-pyrido[2,1-b]quinazoline-6-carboxamide] |
| 6.00 to 7.00 | < 6.00 | 6.00 to 7.00 | < 6.00 | O=C(NC1CCCCC1)c1cccn2c(=O)c3cc(F)ccc3nc12 [Example 24, N-cyclohexyl-2-fluoro-11-oxo-11H-pyrido[2,1-b]quinazoline-6-carboxamide] |
| > 7.00 | < 6.00 | > 7.00 | < 6.00 | O=C(NC1CCCC1)c1cccn2c(=O)c3cc(Br)ccc3nc12 [Example 25, 2-bromo-N-cyclopentyl-11-oxo-11H-pyrido[2,1-b]quinazoline-6-carboxamide] |
| 6.00 to 7.00 | < 6.00 | 6.00 to 7.00 | < 6.00 | O=C(NC1CCCCC1)c1cccn2c(=O)c3cc(Br)ccc3nc12 [Example 26, 2-bromo-N-cyclohexyl-11-oxo-11H-pyrido[2,1-b]quinazoline-6-carboxamide] |
| 6.00 to 7.00 | < 6.00 | 6.00 to 7.00 | < 6.00 | O=C(N[C@H]1CCCC[C@H]1O)c1cccn2c(=O)c3cc(Br)ccc3nc12 [Example 27, 2-bromo-N-((1S,2R)-2-hydroxycyclohexyl)-11-oxo-11H-pyrido[2,1-b]quinazoline-6-carboxamide] |
| 6.00 to 7.00 | < 6.00 | 6.00 to 7.00 | < 6.00 | O=C(NC1CCCCC1)c1cccn2c(=O)c3cc(-c4ccccc4)ccc3nc12 [Example 28, N-cyclohexyl-11-oxo-2-phenyl-11H-pyrido[2,1-b]quinazoline-6-carboxamide] |
| 6.00 to 7.00 | < 6.00 | > 7.00 | < 6.00 | O=C(NC1CCCC1)c1cccn2c(=O)c3cc(-c4ccncc4)ccc3nc12 [Example 32, N-cyclopentyl-11-oxo-2-(pyridin-4-yl)-11H-pyrido[2,1-b]quinazoline-6-carboxamide] |
| 6.00 to 7.00 | < 6.00 | 6.00 to 7.00 | < 6.00 | O=C(N[C@H]1CCCC[C@H]1O)c1cccn2c(=O)c3cc(-c4ccncc4)ccc3nc12 [Example 34, N-((1S,2R)-2-hydroxycyclohexyl)-11-oxo-2-(pyridin-4-yl)-11H-pyrido[2,1-b]quinazoline-6-carboxamide] |
| > 7.00 | < 6.00 | 6.00 to 7.00 | < 6.00 | CN1CCN(c2ccc3nc4c(C(=O)NC5CCCC5)cccn4c(=O)c3c2)CC1 [Example 35, N-cyclopentyl-2-(4-methylpiperazin-1-yl)-11-oxo-11H-pyrido[2,1-b]quinazoline-6-carboxamide] |
| 6.00 to 7.00 | – | > 7.00 | – | CN1CCN(c2ccc3nc4c(C(=O)N[C@H]5CCCC[C@H]5O)cccn4c(=O)c3c2)CC1 [Example 37, N-((1S,2R)-2-hydroxycyclohexyl)-2-(4-methylpiperazin-1-yl)-11-oxo-11H-pyrido[2,1-b]quinazoline-6-carboxamide] |

Reference: patent US11021479B2, “Pyridoquinazoline derivatives useful as protein kinase inhibitors” (ONCOSTELLAE, S.L., priority 2017, dated 2021)
